# Target: T1, Kir3.1/3.2 (Homo sapiens, UniProt P48051+P48549)
# T1 construct: expressed in transfected cells
# T1 sequence (P48549 1-501): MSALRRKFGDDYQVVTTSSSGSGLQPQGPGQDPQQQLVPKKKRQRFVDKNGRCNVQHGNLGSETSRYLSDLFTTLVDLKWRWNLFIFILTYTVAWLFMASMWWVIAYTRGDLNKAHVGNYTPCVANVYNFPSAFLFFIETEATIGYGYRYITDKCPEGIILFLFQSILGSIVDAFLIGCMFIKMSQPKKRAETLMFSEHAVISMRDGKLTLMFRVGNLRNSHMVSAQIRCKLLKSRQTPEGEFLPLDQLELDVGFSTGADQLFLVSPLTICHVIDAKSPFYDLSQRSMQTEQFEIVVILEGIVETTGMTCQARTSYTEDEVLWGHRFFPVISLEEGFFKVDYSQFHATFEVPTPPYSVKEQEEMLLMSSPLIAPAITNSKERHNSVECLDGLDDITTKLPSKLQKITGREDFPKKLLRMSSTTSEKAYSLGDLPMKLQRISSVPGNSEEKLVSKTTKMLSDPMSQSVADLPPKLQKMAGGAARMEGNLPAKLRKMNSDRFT
# T1 sequence (P48051 1-423): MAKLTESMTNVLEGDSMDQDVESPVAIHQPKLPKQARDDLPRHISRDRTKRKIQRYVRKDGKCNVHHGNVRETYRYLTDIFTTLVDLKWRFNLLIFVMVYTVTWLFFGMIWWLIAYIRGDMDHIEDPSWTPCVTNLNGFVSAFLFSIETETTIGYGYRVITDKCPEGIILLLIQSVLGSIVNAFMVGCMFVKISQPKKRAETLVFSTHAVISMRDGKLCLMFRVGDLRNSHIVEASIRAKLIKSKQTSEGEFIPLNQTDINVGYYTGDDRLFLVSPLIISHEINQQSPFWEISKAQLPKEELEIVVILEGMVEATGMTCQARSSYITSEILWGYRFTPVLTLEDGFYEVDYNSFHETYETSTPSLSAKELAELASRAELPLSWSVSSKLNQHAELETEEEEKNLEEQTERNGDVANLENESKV
# Experiment: Tl+ flux selectivity assay, Kir3.1/3.2
# Format: cell-based
# Conditions: Kir3.1/3.2 (with mGlu8, EC80 glutamate); n = 2 independent experiments in triplicate; read-out: Inhibition of Tl+ flux (IC50)
# Protocol: [Worded in the source for another target; used here, by the source, with some conditions changed.] Tl^+ flux assays were performed essentially as described previously, [18], [19]. Briefly, stably transfected T-Rex-HEK-293 cells expressing AeKir1 channels were cultured overnight in 384-well plates (20,000 cells/20 µL/well black-walled, clear-bottomed BD PureCoat amine-coated plates (BD, Bedford, MA) with a plating media containing DMEM, 10% dialyzed FBS and 1 µg/mL tetracycline. The next day, the cell culture medium was replaced with a dye-loading solution containing assay buffer (Hanks Balanced Salt Solution with 20 mM HEPES, pH 7.3), 0.01% (w/v) Pluronic F-127 (Life Technologies, Carlsbad, CA), and 1.2 µM of the thallium-sensitive dye Thallos-AM (TEFlabs, Austin, TX). Following 1 hr incubation at room temperature, the dye-loading solution was washed from the plates and replaced with 20 µL/well of assay buffer. […] Tl^+ flux data were analyzed as previously described, [21], [22] using a combination of Excel (Microsoft Corp, Redmond, WA) with XLfit add-in (IDBS, Guildford, Surrey, UK) and OriginPro (OriginLab, Northampton, MA) software. […] The slope of the fluorescence increase beginning 5 s after Tl^+ addition and ending 15 s after Tl^+ addition was calculated.
smiles,measurement,value
"CCC(=O)N1c2ccc(S(=O)(=O)Nc3cccc(OC)c3)cc2CC1C (stereo not shown) [VU625, N-(3-methoxyphenyl)-2-methyl-1-propionylindoline-5-sulfonamide]",IC50,8.6 µM
